In patent publication US20240316223A1, “Oxidative Cyclization Reagents for Chemoselective Tryptophan Bioconjugation” (The Regents of the University of California, priority 2021, published 2024):
Peptide text beside a SMILES is read from it. * marks the point of attachment. Cbz = O=C(OCc1ccccc1)*

Columns and labels:
HeLa cells = assay: Unfolding stress detection in living cells (desthiobiotin oxaziridine labeling, Western blot against biotin); type: cell-based; settings: HeLa cells treated 8 hours, lysate labeled with desthiobiotin oxaziridine (250 μM)
Description: In another application, we used Trp-CLiC as a general method to probe stress-induced protein unfolding. Indeed, under various environmental stresses, folded proteins will expose more hydrophobic residues as they unfold, and accumulation and aggregation of unfolded proteins is regarded as a signal of loss of proteostasis (34-37). Owing to its sterically demanding and hydrophobic properties, tryptophan residues are more likely to be buried in protein cores. We reasoned that this oxidative cyclization method could enable monitoring of increases in solvent accessibility of buried tryptophan residues during stress-induced protein unfolding. To test this hypothesis, we labeled lysozyme as a model protein in the presence of varying concentrations of guanidinium chloride (GdmCl) as a denaturant. […] We then used Trp-CLiC to monitor stress-induced protein unfolding in whole cell proteomes. HeLa cells were treated with the proteasome inhibitor MG-132, the ER stress inducer Tunicamycin to trigger unfolded protein stress responses, or vehicle control, then lysed and labeled with N-sulfonyl oxaziridine linked to desthiobiotin.
HeLa cells were treated with MG-132 (5 μg/ml) or Tunicamycin (5 μM) for 8 hours. Then cells were harvested and lysed in PBS buffer (1% Triton, with protease inhibitors). […] The labeling results were detected by Western blot analysis against biotin.

[1] = Selectivity and reactivity of Ac-Trp-OMe with N-sulfonyl oxaziridines (LC-MS); settings: for selectivity for the indole cycloadduct product: library screen with Ac-Trp-OMe
Procedure: Initial reactivity studies with the N-sulfonyl oxaziridine Ox-W1 and N-acetyl-L-tryptophan methyl ester (Ac-Trp-OMe) were then performed in PBS/organic solvent mixture for 10 min at room temperature and subjected to liquid chromatography-mass spectrometry (LC-MS) analysis. Tryptophan reacted with a ˜50% conversion. Two major products were observed: the desired indole cycloadduct and hydroxyl tryptophan. The cycloadduct was generated with 28% yield, consistent with simple indoles that can react with such oxaziridines in organic solution (28). […] We then synthesized and screened a library of 20 different oxaziridines for Trp-CLiC chemistry; Ox-W10, Ox-W17, and Ox-W19 emerged as the top lead candidates with improved ˜90% selectivity and high reactivity for the indole cycloadduct product, with a measured reaction rate of 24.9±1.3M^−1 s^−1 that is on par with click chemistry reactions (29-31).
A stock solution of Ac-Trp-OMe (100 mM) in MeOH was mixed with oxaziridine (100 mM) in MeOH (v/v ratio=1:1.2), followed by the immediate addition of PBS (1 volume equiv. to make 1:1 PBS/MeOH). For some oxaziridines with low solubility, the reaction was performed in PBS/MeOH/MeCN (1:1:1) co-solvent. […] It is important the initial stock solutions of Ac-Trp-OMe and oxaziridine are fully homogeneous prior to mixing.
For LC-MS analysis, solvent A was water and solvent B was methanol. The linear gradient was 40-100% B in 6.5 min and 100% B for 1.5 min.

[2] = Reaction of oxaziridine with methionine
[3] = Kinetics of the Trp-CLiC reaction (absorbance at 280 nm, UV-Vis); settings: PBS buffer, 25° C.
Procedure: For kinetics study of the Trp-CLiC reaction, the absorbance at 280 nm was time-dependently monitored by UV-Vis upon adding Ox-W18 (50 μM) into different concentrations of Ac-Trp-OMe (500 μM, 550 μM and 600 μM) in PBS buffer at 25° C. Then the second-order reaction rate constant could be obtained.

GLP-1 = GLP-1 (Homo sapiens, UniProt P01275); assay: Oxaziridine screening on peptides: GLP-1 (Q-TOF); type: biochemical; settings: GLP-1 (50 μM), oxaziridine (300 μM)
Sequence of GLP-1 (P01275 92-128 limits assumed): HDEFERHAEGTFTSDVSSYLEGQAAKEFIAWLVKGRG
Procedure: Peptides were dissolved in 5% DMSO solution. […] The labeled peptides were subjected to Q-TOF analysis with a Proswift RP-4H (monolithic phenyl, 1.0 mm×50 mm, Dionex) column. The Solvent A was MilliQ water with 0.1% (v/v) formic acid, while the Solvent B was ACN with 0.1% (v/v) formic acid. The LC system was set at the 0.30 mL/min with a gradient of 5-100% solvent B in solvent A over 8 min. MassHunter Quantitative Analysis Version software was used for ion chromatogram extraction and Maximum Entropy deconvolution.

HEK 293T cell lysates = assay: Activity-based protein profiling (ABPP) of hyperreactive tryptophan sites; type: biochemical, human; settings: identified in more than two replicates
Description: We next moved on to apply Trp-CLiC at the whole proteome level, specifically to identify new functional tryptophan sites in cells using activity-based protein profiling (ABPP).
From the ABPP studies with the Trp-CLiC method, 190 unique hyperreactive tryptophan sites from 151 probe-modified proteins were identified in more than two replicates. These Ox-W18-labeled tryptophan sites were found in many classes of proteins, including enzymes, chaperones, and nucleoproteins, as well as many structural proteins. Meanwhile, we noticed that many targets are classified as non-druggable and highly enriched in diverse phase-separated compartments, such as the nucleolus, nuclear body, paraspeckle and stress granule. […] For example, the hyperreactive W196 site identified on GAPDH, W346 site found on TBA1B, and W324 and W148 on LDHA enzyme are the most surface-exposed tryptophan residues in these proteins, whereas other tryptophan residues were not probed. […] GAPDH and TBA1B were chosen as representative examples to showcase the Trp-CLiC method for ABPP. […] We then sought to further investigate the character of probed solvent-accessible tryptophan sites by performing motif analysis. […] Lysine is hydrophilic and has the capacity to form cation-π interactions with the indole tryptophan ring, providing a potential pathway for stabilizing hydrophobic tryptophan residues being surface-exposed (38, 39). […]

GAPDH and TBA1B = GAPDH and TBA1B labeling by Western Blot; type: biochemical
Description: From the ABPP studies with the Trp-CLiC method, 190 unique hyperreactive tryptophan sites from 151 probe-modified proteins were identified in more than two replicates. These Ox-W18-labeled tryptophan sites were found in many classes of proteins, including enzymes, chaperones, and nucleoproteins, as well as many structural proteins. Meanwhile, we noticed that many targets are classified as non-druggable and highly enriched in diverse phase-separated compartments, such as the nucleolus, nuclear body, paraspeckle and stress granule. […] For example, the hyperreactive W196 site identified on GAPDH, W346 site found on TBA1B, and W324 and W148 on LDHA enzyme are the most surface-exposed tryptophan residues in these proteins, whereas other tryptophan residues were not probed. […] GAPDH and TBA1B were chosen as representative examples to showcase the Trp-CLiC method for ABPP. […] We then sought to further investigate the character of probed solvent-accessible tryptophan sites by performing motif analysis. […] Lysine is hydrophilic and has the capacity to form cation-π interactions with the indole tryptophan ring, providing a potential pathway for stabilizing hydrophobic tryptophan residues being surface-exposed (38, 39).

lysozyme = lysozyme (Gallus gallus, UniProt P00698); assay: Lysozyme labelling with Ox-W18 (A260/A280 ratio, LC-MS/MS); settings: native folded conditions
Sequence of lysozyme (P00698 19-147): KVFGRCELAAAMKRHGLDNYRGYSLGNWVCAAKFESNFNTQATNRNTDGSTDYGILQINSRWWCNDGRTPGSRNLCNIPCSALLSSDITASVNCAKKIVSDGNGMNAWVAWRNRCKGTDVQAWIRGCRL
Description: Based on spectroscopic analyses, we used the ratio of absorption signatures at 260 and 280 nm (A260/A280 ratio) to track tryptophan bioconjugation on lysozyme.
We next evaluated how many and which tryptophan residues on lysozyme are prioritized for redox-based Trp-CLiC labeling under native folded conditions. […] We then moved on to identify which tryptophan sites are targeted and tested the hypothesis that the propensity of oxidative tryptophan modification reactivity might correlate with solvent accessibility. To this end, we used the Discovery Studio platform to calculate the relative solvent accessibility of the six tryptophan residues on lysozyme.
Proteins were dissolved in Tris (50 mM, pH 8.0) buffer. Ox-W18 (100 mM stock in DMF) was added to 30 μL protein solution (50 μM) and the final concentration was 300 μM. The reactions were performed for 10 min at room temperature and then quenched by addition of excess Ac-Met-OMe solution. For protein labelling under denaturing condition, the protein solution was treated with 0.5% SDS and then boiled for 5 min at 95° C. before Ox-W18 addition. For competition assay, free Ac-Trp-OMe (2 mM) was added beforehand. […]
(§1) Trypsin digested peptides were analyzed on a Thermo Scientific Q Exactive™ Plus Hybrid Quadrupole-Orbitrap™ Mass Spectrometer coupled with an Aligent 1260 Infinite LC system. […]

IL8 = molecular target: T1, IL8 (Homo sapiens, UniProt P10145); assay: Protein labelling with N-sulfonyl oxaziridine: IL8 (LC-MS/MS); settings: native vs denaturant-treated IL8
T1 sequence (P10145 21-99): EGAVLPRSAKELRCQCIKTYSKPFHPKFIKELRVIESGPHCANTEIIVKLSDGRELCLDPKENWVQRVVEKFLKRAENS
Procedure: We then went on to label the model protein IL8, which has one partially buried tryptophan site.
Proteins were dissolved in Tris (50 mM, pH 8.0) buffer. Ox-W18 (100 mM stock in DMF) was added to 30 μL protein solution (50 μM) and the final concentration was 300 μM. The reactions were performed for 10 min at room temperature and then quenched by addition of excess Ac-Met-OMe solution. For protein labelling under denaturing condition, the protein solution was treated with 0.5% SDS and then boiled for 5 min at 95° C. before Ox-W18 addition. For competition assay, free Ac-Trp-OMe (2 mM) was added beforehand. […] After tryptophan labelling with Ox-W18, the proteins were desalted with Zeba™ Spin Desalting Columns (7K MWCO, 0.5 mL) before subsequent Q-TOF analysis and UV-Vis analysis or further click reaction. In-gel fluorescence imaging was also applied to test the tryptophan labelling efficiency. For the copper-mediated alkyne-azide cyclization reaction of fluorescence dye, 100 μM CuSO4, 100 μM TBTA, 100 μM azide-dye and 2 mM sodium ascorbate was added to Ox-W18-labeled proteins. […]
as §1
For protein ID and modification identification, all MS/MS raw files were analyzed using pFind platform. […]

[4] = Ac-Trp-OMe, PBS/organic solvent mixture, 10 min, room temperature

For `CC(C)C[C@@H](C=O)NC(=O)[C@H](CC(C)C)NC(=O)[C@H](CC(C)C)NC(=O)OCc1ccccc1` [MG-132] (Cbz-Leu-Leu-Leu-aldehyde), the “desthiobiotin staining signal vs vehicle control” value (HeLa cells) was “more desthiobiotin staining signal”.
For `CS(=O)(=O)N1OC1c1ccccc1` (stereo not drawn) [Ox-W1], the Tryptophan conversion [1, 4] was about 50%, the indole cycloadduct yield [1, 4] was 28% and the “product of reaction with methionine” value [2] was “traceless methionine sulfoxide adduct”.
For `COc1ccc(S(=O)(=O)N2OC2c2ccc([N+](=O)[O-])cc2[N+](=O)[O-])cc1` (stereo not drawn) [Ox-W10], the “selectivity for the indole cycloadduct product” value (from here on “selectivity”) [1] was about 90% and the “measured reaction rate (second-order rate constant)” value (from here on “measured reaction rate”) [3] was 24.9 ± 1.3 M⁻¹ s⁻¹.
For `C#Cc1ccc(S(=O)(=O)N2OC2c2ccccc2[N+](=O)[O-])cc1` (stereo not drawn) [Ox-W17], the “selectivity” value [1] was about 90% and the “measured reaction rate” value [3] was 24.9 ± 1.3 M⁻¹ s⁻¹.
In the case of `C#CCN(C)S(=O)(=O)N1OC1c1ccccc1[N+](=O)[O-]` (stereo not drawn) [Ox-W18], the conversion (GLP-1) is reported as “quantitative”, the cycloadduct yield (GLP-1) is reported as 74% and the probe-modified proteins identified (HEK 293T cell lysates) is reported as 151. For the same compound, the “unique hyperreactive tryptophan sites identified” value (HEK 293T cell lysates) was 190, the “GAPDH and TBA1B labeling with increased probe addition” value (GAPDH and TBA1B) was “more GAPDH and TBA1B labeling” and the A260/A280 ratio (lysozyme) was 0.80. The “modification of the partially buried tryptophan site” value (IL8) was “modified only after treatment with a denaturant”.
In the case of `C#CCN(C)S(=O)(=O)N1OC1c1ccc([N+](=O)[O-])cc1[N+](=O)[O-]` (stereo not drawn) [Ox-W19], the “selectivity” value [1] is reported as about 90% and the “measured reaction rate” value [3] is reported as 24.9 ± 1.3 M⁻¹ s⁻¹.
In the case of Tunicamycin, the “desthiobiotin staining signal vs vehicle control” value (HeLa cells) is reported as “more desthiobiotin staining signal”.
